Key:
S. aureus DSM 20231 [1] = experiment: fitness (endpoint OD595 vs no drug) (fraction); higher = more growth
Method in brief: (§1)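 Growth medium was TSB, LB Lennox or CY, and plates were kept at 37 °C. Inoculation was at OD595 0.01 in 384-well plates, at 30 µl per well or 55 µl for S. pneumoniae. OD595 was monitored every 30 min for 14 h and background-subtracted using the first reading. Fitness is the optical density on entering stationary phase divided by the robust mean of no-drug controls, with values capped at 1.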

S. aureus Newman [2] = experiment: as above
Method in brief: as §1

S. pneumoniae D39V [3] = experiment: as above
Method in brief: as §1

B. subtilis 168 = experiment: Bliss interaction score (quartile over a dose matrix) (fitness difference); higher = more antagonism (negative = synergy)
Method in brief: (§2)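 Each OD595 reading at entry into stationary phase was scaled to the robust mean of the untreated wells on its plate, with a ceiling of 1. These ratios define fitness, and single-drug fitness was inferred from combinations. The Bliss score compares observed fitness with the product-based expectation and is reported as quartiles across all replicate types, technical, biological and donor/recipient.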

S. aureus DSM 20231 [4] = experiment: as above
Method in brief: as §2

S. aureus Newman [5] = experiment: as above
Method in brief: as §2

S. pneumoniae D39V [6] = experiment: as above
Method in brief: as §2
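For Bliss interaction score (quartile over a dose matrix) in this document: first quartile when negative (synergy) and third quartile when positive (antagonism).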
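For fitness (endpoint OD595 vs no drug) in this document: OD595 on entry to stationary phase over no-drug wells; at most 1.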

Cc1ncc([N+](=O)[O-])n1CCO [Metronidazole] + Cn1nnc(-c2ccc(-c3ccc(N4C[C@H](CO)OC4=O)cc3F)cn2)n1 [Tedizolid]
fitness
Conditions	partner 0.03125 µg/mL	partner 0.0625 µg/mL	partner 0.125 µg/mL	partner 0.25 µg/mL	partner 0.5 µg/mL
S. aureus DSM 20231 [1], first compound 0.625 µg/mL	–	0.966	0.842	–	–
S. aureus DSM 20231 [1], first compound 1.25 µg/mL	–	0.91	0.839	0.552	–
S. aureus DSM 20231 [1], first compound 2.5 µg/mL	–	0.982	0.851	–	–
S. aureus Newman [2], first compound 0.625 µg/mL	–	0.985	0.875	0.521	–
S. aureus Newman [2], first compound 0.781 µg/mL	–	0.954	0.861	–	–
S. aureus Newman [2], first compound 1.25 µg/mL	–	0.948	0.89	0.509	–
S. aureus Newman [2], first compound 1.562 µg/mL	–	0.951	0.88	–	–
S. aureus Newman [2], first compound 2.5 µg/mL	–	0.93	0.874	–	–
S. aureus Newman [2], first compound 3.124 µg/mL	–	0.957	0.866	–	–
S. pneumoniae D39V [3], first compound 1.073 µg/mL	–	–	0.768	0.856	–
S. pneumoniae D39V [3], first compound 1.25 µg/mL	0.959	0.98	0.831	–	–
S. pneumoniae D39V [3], first compound 2.145 µg/mL	–	–	0.807	0.845	0.255
S. pneumoniae D39V [3], first compound 2.5 µg/mL	0.974	0.998	0.85	–	–
S. pneumoniae D39V [3], first compound 4.29 µg/mL	–	–	0.814	0.838	0.259
S. pneumoniae D39V [3], first compound 5 µg/mL	0.958	0.971	0.85	–	–

Conditions	Bliss interaction score
B. subtilis 168	-0.0352
S. aureus DSM 20231 [4]	0.0997
S. aureus Newman [5]	0.105
S. pneumoniae D39V [6]	-0.0886

C[C@@H]1O[C@@H]1P(=O)(O)O [Fosfomycin] + CCCCCCCCCC(=O)N[C@@H]1[C@H]([C@@H]([C@H](O[C@H]1OC2=C3C=C4C=C2OC5=C(C=C(C=C5)[C@H]([C@H]6C(=O)N[C@@H](C7=C(C(=CC(=C7)O)OC8[C@H]([C@H]([C@@H]([C@H](O8)CO)O)O)O)C9=C(C=CC(=C9)[C@H](C(=O)N6)NC(=O)[C@@H]4NC(=O)[C@@H]1C2=CC(=CC(=C2)OC2=C(C=CC(=C2)[C@H](C(=O)N[C@H](CC2=CC(=C(O3)C=C2)Cl)C(=O)N1)N)O)O)O)C(=O)O)O[C@H]1[C@@H]([C@H]([C@@H]([C@H](O1)CO)O)O)NC(=O)C)Cl)CO)O)O [Teicoplanin]
fitness, main component drawn
Conditions	first compound 0.781 µg/mL	first compound 1.562 µg/mL	first compound 3.124 µg/mL
S. aureus DSM 20231 [1], partner 0.1562 µg/mL	0.863	0.698	0.538
S. aureus DSM 20231 [1], partner 0.3125 µg/mL	0.968	0.831	–
S. aureus DSM 20231 [1], partner 0.625 µg/mL	0.933	0.862	0.654
S. aureus Newman [2], partner 0.1562 µg/mL	0.58	0.525	0.127
S. aureus Newman [2], partner 0.3125 µg/mL	0.568	0.534	0.261
S. aureus Newman [2], partner 0.625 µg/mL	0.663	0.582	0.348

fitness, S. aureus Newman [2], one replicate, main component drawn
Conditions	first compound 0.781 µg/mL	first compound 1.562 µg/mL	first compound 3.124 µg/mL
partner 0.62 µg/mL	0.715	0.682	0.522
partner 1.24 µg/mL	0.646	0.616	0.472
partner 2.48 µg/mL	0.461	0.234	0.0834

main component drawn
Conditions	Bliss interaction score
B. subtilis 168	-0.078
S. aureus DSM 20231 [4]	0.154
S. aureus Newman [5]	0.177
S. pneumoniae D39V [6]	0.065

COc1cccc2c1C(=O)c1c(O)c3c(c(O)c1C2=O)C[C@@](O)(C(=O)CO)C[C@@H]3O[C@H]1C[C@H](N)[C@H](O)[C@H](C)O1 [Doxorubicin] + CN[C@H](CC(C)C)C(=O)N[C@H]1C(=O)N[C@@H](CC(N)=O)C(=O)N[C@H]2C(=O)N[C@H]3C(=O)N[C@H](C(=O)N[C@H](C(=O)O)c4cc(O)cc(O)c4-c4cc3ccc4O)[C@H](O)c3ccc(c(Cl)c3)Oc3cc2cc(c3O[C@@H]2O[C@H](CO)[C@@H](O)[C@H](O)[C@H]2O[C@H]2C[C@](C)(N)[C@H](O)[C@H](C)O2)Oc2ccc(cc2Cl)[C@H]1O [Vancomycin]
Conditions	fitness
S. aureus DSM 20231 [1], first compound 0.625 µg/mL, partner 0.1875 µg/mL	0.843
S. aureus DSM 20231 [1], first compound 0.625 µg/mL, partner 0.375 µg/mL	0.869
S. aureus DSM 20231 [1], first compound 0.625 µg/mL, partner 0.75 µg/mL	0.888
S. aureus DSM 20231 [1], first compound 1.25 µg/mL, partner 0.1875 µg/mL	0.84
S. aureus DSM 20231 [1], first compound 1.25 µg/mL, partner 0.375 µg/mL	0.927
S. aureus DSM 20231 [1], first compound 1.25 µg/mL, partner 0.75 µg/mL	0.894
S. aureus DSM 20231 [1], first compound 2.5 µg/mL, partner 0.1875 µg/mL	0.787
S. aureus DSM 20231 [1], first compound 2.5 µg/mL, partner 0.375 µg/mL	0.952
S. aureus DSM 20231 [1], first compound 2.5 µg/mL, partner 0.75 µg/mL	0.907
S. aureus Newman [2], first compound 0.625 µg/mL, partner 0.1875 µg/mL	0.849
S. aureus Newman [2], first compound 0.625 µg/mL, partner 0.375 µg/mL	0.825
S. aureus Newman [2], first compound 0.625 µg/mL, partner 0.75 µg/mL	0.851
S. aureus Newman [2], first compound 1.25 µg/mL, partner 0.1875 µg/mL	0.823
S. aureus Newman [2], first compound 1.25 µg/mL, partner 0.375 µg/mL	0.814
S. aureus Newman [2], first compound 1.25 µg/mL, partner 0.75 µg/mL	0.794
S. aureus Newman [2], first compound 2.5 µg/mL, partner 0.1875 µg/mL	0.764
S. aureus Newman [2], first compound 2.5 µg/mL, partner 0.375 µg/mL	0.745
S. aureus Newman [2], first compound 2.5 µg/mL, partner 0.75 µg/mL	0.731
S. pneumoniae D39V [3], first compound 0.25 µg/mL, partner 0.03125 µg/mL	0.92
S. pneumoniae D39V [3], first compound 0.25 µg/mL, partner 0.0625 µg/mL	0.851
S. pneumoniae D39V [3], first compound 0.25 µg/mL, partner 0.125 µg/mL	0.88
S. pneumoniae D39V [3], first compound 0.25 µg/mL, partner 0.5 µg/mL	0.0816
S. pneumoniae D39V [3], first compound 0.5 µg/mL, partner 0.03125 µg/mL	0.924
S. pneumoniae D39V [3], first compound 0.5 µg/mL, partner 0.0625 µg/mL	0.898
S. pneumoniae D39V [3], first compound 0.5 µg/mL, partner 0.125 µg/mL	0.913
S. pneumoniae D39V [3], first compound 0.5 µg/mL, partner 0.5 µg/mL	0.0725
S. pneumoniae D39V [3], first compound 1 µg/mL, partner 0.03125 µg/mL	0.865
S. pneumoniae D39V [3], first compound 1 µg/mL, partner 0.0625 µg/mL	0.8
S. pneumoniae D39V [3], first compound 1 µg/mL, partner 0.25 µg/mL	0.377
S. pneumoniae D39V [3], first compound 1 µg/mL, partner 0.5 µg/mL	0.0604

Conditions	Bliss interaction score
B. subtilis 168	-0.0982
S. aureus DSM 20231 [4]	-0.0449
S. aureus Newman [5]	-0.0426
S. pneumoniae D39V [6]	0.048

Source: the supplement of paper PMC10627819
